Measurements taken from patent publication US20210181109A1 (FUJIFILM Corporation, priority 2018, published 2021).
Where two headings read alike, the source gives them in different places.

Columns and labels:
[1] = NAC depletion percent, HPLC-fluorescence detection; conditions: single substance, test substance solution 1 mmol/L, fluorescence method
How it was run: (§1)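 NAC at 5 μmol/L in pH 8.0 phosphate buffer reacted with test substance (1 mmol/L stock in water, acetonitrile, acetone or 5% DMSO/acetonitrile) 24 h at 25 °C in the dark, n=3. Stopped with TFA (0.5% final); unreacted NAC quantified by HPLC, depletion percent calculated against blank without test substance.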

[2] = NAL depletion percent, HPLC-fluorescence detection; conditions: single substance, test substance solution 1 mmol/L, fluorescence method
How it was run: (§2)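 NAL (5 μmol/L, pH 10.2 phosphate buffer) reacted with test substance (1 mmol/L stock in water, acetonitrile, acetone or 5% DMSO/acetonitrile) for 24 h at 25 °C in the dark; stopped with TFA to 0.5%. Unreacted NAL quantified by HPLC (UV or fluorescence), n=3; depletion % relative to substance-free blank.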

[3] = Average score of NAC and NAL depletion and prediction of skin allergenicity, fluorescence method
How it was run: (§3)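 Score is the mean of NAC and NAL depletion percentages, rounded at the second decimal place. Test substances classed as allergenic (S) or non-allergenic (NS) from depletion of NAC, NAL, or their average score.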

[4] = NAC depletion percent, HPLC-UV detection (281 nm); conditions: single substance, test substance solution 1 mmol/L, Reference (UV method)
How it was run: as §1

[5] = NAL depletion percent, HPLC-UV detection (281 nm); conditions: single substance, test substance solution 1 mmol/L, Reference (UV method)
How it was run: as §2

[6] = Average score of NAC and NAL depletion and prediction of skin allergenicity, UV method
How it was run: as §3

[7] = cited from earlier work
[8] = single substance, fluorescence method, criterion average score […]
[9] = single substance, test substance solution 1 mmol/L, fluorescence method
[10] = single substance, Reference (UV method), criterion average score […]
[11] = single substance, test substance solution 1 mmol/L, Reference (UV method)
[12] = known values, LLNA-test-based classification, − for non-allergenic substances

Compound	NAC depletion (%) [1] [%]	NAL depletion (%) [2] [%]	Prediction result [3, 8]	Average score [3, 9] [%]	NAC depletion (%) [4] [%]	NAL depletion (%) [5] [%]	Prediction result [6, 10]	Average score [6, 11] [%]	EC3 (%) [7, 12] [%]	Average score [3] [%]	Prediction result [3]	Average score [6] [%]	Prediction result [6]	EC3 (%) ([7]; in vivo)
CCCCCCCCC(=O)Cl [Nonanoyl chloride]	8.9	54.5	S (S represents as being an allergenic substance)	31.7	7.4	39.4	S (S represents as being an allergenic substance)	23.4	1.8	–	–	–	–	–
CCO/C=C1\N=C(c2ccccc2)OC1=O [Oxazolone]	92.0	65.5	–	–	85.3	80.1	–	–	–	78.8	S (key: S represents as being an allergenic substance; NS represents as being a non-allergenic substance)	82.7	S (key: S represents as being an allergenic substance; NS represents as being a non-allergenic substance)	0.003
CCCCCCCCCCCCCCCC(=O)Cl [Palmitoyl chloride]	11.5	98.3	S (S represents as being an allergenic substance)	54.9	5.8	95.9	S (S represents as being an allergenic substance)	50.8	8.8	–	–	–	–	–
C=C(C)C1CC=C(C=O)CC1 (centres unmarked) [Perillaldehyde]	42.4	7.1	S (S represents as being an allergenic substance)	24.7	29.1	18.5	S (S represents as being an allergenic substance)	23.8	8.1	–	–	–	–	–
O=CCc1ccccc1 [Phenylacetaldehyde]	9.5	96.2	S (S represents as being an allergenic substance)	52.9	22.4	98.3	S (S represents as being an allergenic substance)	60.3	3	–	–	–	–	–
O=C1OC(=O)c2ccccc21 [Phthalic anhydride]	0.3	92.6	S (S represents as being an allergenic substance)	46.4	0.3	96.9	S (S represents as being an allergenic substance)	48.6	0.16	–	–	–	–	–
CCCOC(=O)c1cc(O)c(O)c(O)c1 [Propyl gallate]	100.0	65.3	S (S represents as being an allergenic substance)	82.6	97.1	56.4	S (S represents as being an allergenic substance)	76.7	0.32	–	–	–	–	–
O=c1c(O)c(O)c1=O [Squaric acid]	1.0	0.1	–	0.5	0.8	0.5	–	0.6	–	–	–	–	–	4.3
O=C(O)c1ccc2c(c1)C(=O)OC2=O [Trimellitic anhydride]	0.8	94.2	S (S represents as being an allergenic substance)	47.5	1.9	97.0	S (S represents as being an allergenic substance)	49.4	0.6	–	–	–	–	–
O=C1C=CC(=O)C=C1 [p-Benzoquinone]	100.0	71.8	–	85.9	96.5	83.5	S (S represents as being an allergenic substance)	90.0	0.0099	–	S (key: S represents as being an allergenic substance; NS represents as being a non-allergenic substance)	–	–	–
CCC/C=C/C=O [trans-2-Hexanal]	97.9	11.4	S (S represents as being an allergenic substance)	54.6	80.4	12.3	S (S represents as being an allergenic substance)	46.3	5.5	–	–	–	–	–
CCCCCC(C=O)=Cc1ccccc1 [α-Amylcinnamaldehyde]	0.3	0.4	NS (NS represents as being a non-allergenic substance)	0.3	0.0	1.6	NS (NS represents as being a non-allergenic substance)	0.8	11	–	–	–	–	–
CCCCCCC(C=O)=Cc1ccccc1 [α-Hexylcinnamaldehyde]	0.0	0.0	NS (NS represents as being a non-allergenic substance)	0.0	0.0	1.1	NS (NS represents as being a non-allergenic substance)	0.6	11	–	–	–	–	–
Fluorescein isothiocyanate	81.3	97.6	S (S represents as being an allergenic substance)	89.4	73.6	98.1	S (S represents as being an allergenic substance)	85.8	–	–	–	–	–	0.14
Kathon CG	100.0	2.0	–	51.0	100.0	−0.4	–	49.8	–	–	–	–	–	0.008
Vinylpyridine	19.8	3.6	S (S represents as being an allergenic substance)	11.7	18.1	7.7	S (S represents as being an allergenic substance)	12.9	1.6	–	–	–	–	–
